# Assay results taken from PubChem BioAssay AID1845202 (Molecular Pharmacology Branch, DTP, NCI, 2023).
# System: DMS 114 tumor spheroids, viability % test/control
# Experiment: Anticancer human tumor DMS 114 cell line growth inhibition;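 also: spheroids exposed to compounds for 7 days before read-out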;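 as to viability, T/C: luminescence used as a proxy for viable cells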
# Details: spheroids with HUVEC and MSC; for IC50: curve of first compound; for viability, T/C: stronger effect = lower value
# Summary of the method: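 Complex spheroids of malignant cells with endothelial cells and mesenchymal stem cells; agents alone or combined, from near clinical Cmax (or 10 microM if unknown) down in half-log steps, 0.25% DMSO final.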
# [1] = second compound 1 µM, first compound 0.00949 µM
# [2] = second compound 1 µM, first compound 0.03 µM
# [3] = second compound 1 µM, first compound 0.0949 µM
# [4] = second compound 1 µM, first compound 0.3 µM
# [5] = second compound 1 µM, first compound 0.949 µM
# [6] = second compound 1 µM, first compound 3 µM
# [7] = second compound 3.16 µM, first compound 0.00949 µM
# [8] = second compound 3.16 µM, first compound 0.03 µM
# [9] = second compound 3.16 µM, first compound 0.0949 µM
# [10] = second compound 3.16 µM, first compound 0.3 µM
# [11] = second compound 3.16 µM, first compound 0.949 µM
# [12] = second compound 3.16 µM, first compound 3 µM
# [13] = second compound 10 µM, first compound 0.00949 µM
# [14] = second compound 10 µM, first compound 0.03 µM
# [15] = second compound 10 µM, first compound 0.0949 µM
# [16] = second compound 10 µM, first compound 0.3 µM
# [17] = second compound 10 µM, first compound 0.949 µM
# [18] = second compound 10 µM, first compound 3 µM
# [19] = second compound 31.6 µM, first compound 0.00949 µM
# [20] = second compound 31.6 µM, first compound 0.03 µM
# [21] = second compound 31.6 µM, first compound 0.0949 µM
# [22] = second compound 31.6 µM, first compound 0.3 µM
# [23] = second compound 31.6 µM, first compound 0.949 µM
# [24] = second compound 31.6 µM, first compound 3 µM
# [25] = second compound 100 µM, first compound 0.00949 µM
# [26] = second compound 100 µM, first compound 0.03 µM
# [27] = second compound 100 µM, first compound 0.0949 µM
# [28] = second compound 100 µM, first compound 0.3 µM
# [29] = second compound 100 µM, first compound 0.949 µM
# [30] = second compound 100 µM, first compound 3 µM
Structure (SMILES),IC50 (second compound 1 µM) [nM],IC50 (second compound 3.16 µM) [nM],IC50 (second compound 10 µM) [nM],IC50 (second compound 31.6 µM) [nM],IC50 (second compound 100 µM) [nM],"viability, T/C [3] [%]","viability, T/C [4] [%]","viability, T/C [5] [%]","viability, T/C [6] [%]","viability, T/C [9] [%]","viability, T/C [10] [%]","viability, T/C [11] [%]","viability, T/C [12] [%]","viability, T/C [15] [%]","viability, T/C [16] [%]","viability, T/C [17] [%]","viability, T/C [18] [%]","viability, T/C [21] [%]","viability, T/C [22] [%]","viability, T/C [23] [%]",further results
CNCc1ccc(-c2cc(-c3nc(-c4ccc(S(=O)(=O)C(C)C)cc4)cnc3N)on2)cc1 + Cn1nnc2c(C(N)=O)ncn2c1=O,186,178,175,161,91.6,80.9,28.3,5.64,0.18,77.6,27,3.9,0.24,72.7,30.2,2.75,0.19,75.8,22.4,2.81,"viability, T/C [1]: 103%; viability, T/C [2]: 94.4%; viability, T/C [7]: 102%; viability, T/C [8]: 103%; viability, T/C [13]: 101%; viability, T/C [14]: 99.3%; viability, T/C [19]: 114%; viability, T/C [20]: 92%; viability, T/C [24]: 0.23%; viability, T/C [25]: 89.7%; viability, T/C [26]: 83.3%; viability, T/C [27]: 47.4%; viability, T/C [28]: 16.1%; viability, T/C [29]: 2.42%; viability, T/C [30]: 0.69%"
Cc1sc2c(c1C)C(c1ccc(Cl)cc1)=NC(CC(=O)Nc1ccc(O)cc1)c1nnc(C)n1-2 (stereo not given) + Cn1nnc2c(C(N)=O)ncn2c1=O,158,194,170,167,116,64.5,29.9,11.3,6.69,81.4,30.7,10.7,6.68,71.6,28.1,10.7,4.92,71,28.6,9.45,"viability, T/C [1]: 98.8%; viability, T/C [2]: 101%; viability, T/C [7]: 104%; viability, T/C [8]: 103%; viability, T/C [13]: 102%; viability, T/C [14]: 108%; viability, T/C [19]: 114%; viability, T/C [20]: 100%; viability, T/C [24]: 4.67%; viability, T/C [25]: 93.9%; viability, T/C [26]: 93%; viability, T/C [27]: 55.1%; viability, T/C [28]: 18.9%; viability, T/C [29]: 6.62%; viability, T/C [30]: 2.68%"
Cn1ncnc1[C@H]1c2n[nH]c(=O)c3cc(F)cc(c23)N[C@@H]1c1ccc(F)cc1 + Cn1nnc2c(C(N)=O)ncn2c1=O,696,646,208,< 9.49,< 9.49,98.8,82.6,37.9,11.6,97.2,77.2,36,14,65.8,43.4,27.1,16.2,32.4,27.6,20.7,"viability, T/C [1]: 106%; viability, T/C [2]: 107%; viability, T/C [7]: 112%; viability, T/C [8]: 107%; viability, T/C [13]: 111%; viability, T/C [14]: 82.7%; viability, T/C [19]: 51.5%; viability, T/C [20]: 39.3%; viability, T/C [24]: 10.8%; viability, T/C [25]: 24.1%; viability, T/C [26]: 23.1%; viability, T/C [27]: 22.3%; viability, T/C [28]: 19.4%; viability, T/C [29]: 14.9%; viability, T/C [30]: 9.45%"
O=C(c1cc(Cc2n[nH]c(=O)c3ccccc23)ccc1F)N1CCN(C(=O)C2CC2)CC1 + Cn1nnc2c(C(N)=O)ncn2c1=O,20000,21900,10200,2660,252,106,99.2,105,106,112,109,108,102,120,111,118,81.6,110,103,83.7,"viability, T/C (second compound 1 µM, first compound 9.49 µM): 73.9%; viability, T/C (second compound 1 µM, first compound 30 µM): 37%; viability, T/C (second compound 3.16 µM, first compound 9.49 µM): 68.5%; viability, T/C (second compound 3.16 µM, first compound 30 µM): 43.1%; viability, T/C (second compound 10 µM, first compound 9.49 µM): 54.3%; viability, T/C (second compound 10 µM, first compound 30 µM): 30.1%; viability, T/C [24]: 46.2%; viability, T/C (second compound 31.6 µM, first compound 9.49 µM): 28.1%; viability, T/C (second compound 31.6 µM, first compound 30 µM): 25.8%; viability, T/C [27]: 60.2%; viability, T/C [28]: 48.7%; viability, T/C [29]: 32.9%; viability, T/C [30]: 25.4%; viability, T/C (second compound 100 µM, first compound 9.49 µM): 21.1%; viability, T/C (second compound 100 µM, first compound 30 µM): 19%"
